Results taken from paper PMC2690590, “Functional recombinant MHC class II molecules and high-throughput peptide-binding assays” (Immunome Research, 2009).
Where two headings read alike, the source gives them in different places. Where no end group is shown, it is not given here.

Assays:
DR1 = DR1 (Homo sapiens, UniProt P01903+P01911, A100R/D57E/F55L/F60I/F76Y/I96L/L162R/M171V/P40L/Q125E/R42F/V115G/Y59C); assay: Effects of additives on the refolding of DR1, spun column assay; type: biochemical; conditions: for Harmfull (to DR1 refolding): additive titrated in refolding buffer pH 8 without glycerol, 3 nM 125I YHA306-318, 80 nM DR1 α and β chains
[1] = biological target: T1, DR2a (DRA*0101/DRB5*0101) (Homo sapiens, UniProt P01903+Q30154); assay: Competitive LOCI peptide-MHC-II binding assay, DR2a
T1 construct: DRA*01011-181LZFos; DRB5*01011-190LZJunBSP; made in house

[2] = biological target: T1, DR2a (DRA*0101/DRB5*0101); assay: Direct LOCI peptide-MHC-II binding assay, DR2a
DR3 (DRA*0101/DRB1*0301) = biological target: T2, DR3 (DRA*0101/DRB1*0301) (Homo sapiens, UniProt P01903+P01911, A100K/A102G/A103R/A169T/F55Y/I96L/K41T/L162R/M171V/P40S/Q125H/Q178H/Q39Y/R42S/S66N/T106N/T262R/W38E/Y61H); assay: Direct LOCI peptide-MHC-II binding assay, DR3
T2 construct: DRA*01011-181LZFos; DRB1*03011-190LZJunBSP; made in house

DR4 (DRA*0101/DRB1*0401) = biological target: T3, DR4 (DRA*0101/DRB1*0401) (Homo sapiens, UniProt P01903+P01911, A100K/A169T/F76Y/I96L/K127E/L162R/M171V/N62H/P40V/Q125Y/R42H/S133A/S149N/S66Y/V115G/V209L/W38E); assay: Direct LOCI peptide-MHC-II binding assay, DR4
T3 construct: DRA*01011-181LZFos; DRB1*04011-190LZJunBSP; made in house

[3] = biological target: T4, DRB1*0813 (DRA*0101/DRB1*0813) (Homo sapiens, UniProt P01903+P01911, A100R/A103L/A169T/F76Y/H45Y/I96L/K41T/L162R/M171V/P40S/Q125H/Q178H/Q39Y/Q99D/R218S/R42G/S66Y/V115G/W38E); assay: Direct LOCI peptide-MHC-II binding assay, DRB1*0813
T4 construct: DRA*01011-181LZFos; DRB1*08131-190LZJunBSP; made in house

[4] = biological target: T5, DRB3*0301 (DRA*0101/DRB3*0301) (Homo sapiens, UniProt P01903+P79483, A169T/A212P/D57E/G115V/L67V/Q178H/R103Q/R40L/Y55F); assay: Direct LOCI peptide-MHC-II binding assay, DRB3*0301
T5 construct: DRA*01011-181LZFos; DRB3*03011-190LZJunBSP; made in house

[5] = biological target: DP401 (DPA1*0103/DPB1*0401) (Homo sapiens, UniProt P04440+P20036); assay: Direct LOCI peptide-MHC-II binding assay, DP401
I-E^d = biological target: T6, I-E^d (Mus musculus, UniProt P01904+P01915); assay: Direct LOCI peptide-MHC-II binding assay, I-E^d
T6 construct: I-E^dA1-191LZFos; I-E^dB1-198LZJunBSP; made in house

[6] = refolding buffer pH 8 without glycerol, 3 nM 125I YHA306-318, 80 nM DR1

`CCC(C)O` (centres unmarked) [2-Butanol] was tested, and the “Harmfull (to DR1 refolding)” value (DR1) was “Yes” and the “additive concentration at 50 % signal reduction” value (DR1; [6]) was 2.5 Vol %.

In the case of `CCCCCCCCO[C@@H]1O[C@H](CO)[C@@H](O)[C@H](O)[C@H]1O` [Beta octyl glucoside], the “Harmfull (to DR1 refolding)” value (DR1) is reported as “No” and the “Ok up to” value (DR1; [6]) is reported as “Ok up to 0.5 w/w %”.

For `C[C@H](CCC(=O)O)[C@H]1CC[C@H]2[C@@H]3CC[C@@H]4C[C@H](O)CC[C@]4(C)[C@H]3C[C@H](O)[C@]12C` [DOC, Deoxycholate], the “Harmfull (to DR1 refolding)” value (DR1) was “Yes/No” and the “Positive effect up to (harmful at higher concentrations)” value (DR1; [6]) was “Positive effect up to 0.02 % Harmfull at higher concentrations”.

`OCC(O)CO` [Glycerol] was tested, and the “Harmfull (to DR1 refolding)” value (DR1) was “No” and the “effect on DR1 refolding (in words)” value (DR1; refolding buffer pH 8, 3 nM 125I YHA306-318, 80 nM DR1) was “Enhances folding in whole range tested”.

In the case of `CC(C)O` [Isopropanol], the “Harmfull (to DR1 refolding)” value (DR1) is reported as “Yes” and the “additive concentration at 50 % signal reduction” value (DR1; [6]) is reported as 5 Vol %.

In the case of `CCCCCCCCCCCC(=O)N(C)CC(=O)O` [N-Laurylsarcosin], the “Harmfull (to DR1 refolding)” value (DR1) is reported as “Yes” and the “additive concentration at 50 % signal reduction” value (DR1; [6]) is reported as 0.01 Vol %.

With `[Cl-].[Na+]` [NaCl, Sodium Chloride] the “Harmfull (to DR1 refolding)” value (DR1) was “Yes” and the “additive concentration at 50 % signal reduction” value (DR1; [6]) was 100 mM.

For `NC(N)=O` [Urea], the “Harmfull (to DR1 refolding)” value (DR1) was “Yes/No” and the “Ok up to (harmful at higher concentrations)” value (DR1; [6]) was “Ok up to 400 mM. Harmfull at higher concentrations”.

`Oc1ccc(Cl)cc1` [parachlorophenol (pCP), parachlorophenol] was tested, and the “Harmfull (to DR1 refolding)” value (DR1) was “Yes” and the “additive concentration at 50 % signal reduction” value (DR1; [6]) was 4 mM.

For IQMLKNGKKIPKVEMS [Murine β2m], the IC50 ([1]; DR2a Komp IC50 (nM)) was 3 nM, the Kd [2] was 6 nM and the Kd (DR3 (DRA*0101/DRB1*0301)) was 21 nM. It also gave a Kd (DR4 (DRA*0101/DRB1*0401); DR4 affinity (nM)) of over 5000 nM, a Kd [3] of 73 nM and a Kd [4] of 70 nM. It also gave a Kd ([5]; DP401 affinity (nM)) of over 5000 nM and a Kd (I-E^d; I-E^D affinity (nM)) of 117 nM.

PIVQNIQGQMVHQ [HIV] gave an IC50 ([1]; DR2a Komp IC50 (nM)) of 852 nM, a Kd [2] of 447 nM and a Kd (DR3 (DRA*0101/DRB1*0301)) of 471 nM. For the same compound, the Kd (DR4 (DRA*0101/DRB1*0401); DR4 affinity (nM)) was over 5000 nM, the Kd [3] was over 5000 nM and the Kd [4] was 23 nM. For the same compound, the Kd ([5]; DP401 affinity (nM)) was over 5000 nM and the Kd (I-E^d; I-E^D affinity (nM)) was over 5000 nM.

Work on PLKAEIAQRLEDV [Influenza] yielded an IC50 [1] of 41 nM, a Kd [2] of 65 nM and a Kd (DR3 (DRA*0101/DRB1*0301)) of 134 nM. For the same compound, the Kd (DR4 (DRA*0101/DRB1*0401)) was 2680 nM, the Kd [3] was over 5000 nM and the Kd [4] was 11 nM. The Kd [5] was 2090 nM and the Kd (I-E^d) was over 5000 nM.

Compound RMIAISAKV [Pox.o42.con.im. A2] has an IC50 ([1]; pH 6-7.5, 48 h 18°C, read-out: DR2a Komp IC50) of 1990 nM, a Kd ([2]; pH 6, 48 h 18°C, read-out: DR2a pH6 affinity) of 1650 nM and a Kd (DR3 (DRA*0101/DRB1*0301); pH 6-7, 48 h 18°C, read-out: DR3 affinity) of 516 nM. The Kd (DR4 (DRA*0101/DRB1*0401); pH 6-7.5, 48 h 18°C, read-out: DR4 affinity) was over 5000 nM, the Kd ([3]; pH 6-7.5, 48 h 18°C, read-out: DRB1*0813 affinity) was 267 nM and the Kd ([4]; pH 7, 48 h 18°C, read-out: DRB3*0301 affinity) was 1260 nM. For the same compound, the Kd ([5]; pH 7, 48 h 18°C, read-out: DP401 affinity) was over 5000 nM and the Kd (I-E^d; 48 h 18°C, read-out: I-E^D affinity) was over 5000 nM.

Compound YILLKKILSSRFNQM [Plasmodium Falciparum] has an IC50 ([1]; DR2a Komp IC50 (nM)) of 2 nM, an IC50 ([1]; IC50, DR2a inhibition assay) of 0.6 nM and a Kd [2] of 4 nM. For the same compound, the Kd (DR3 (DRA*0101/DRB1*0301)) was 32 nM, the Kd (DR4 (DRA*0101/DRB1*0401); DR4 affinity (nM)) was 94 nM and the Kd (DR4 (DRA*0101/DRB1*0401); KD, DR4) was 133 nM. It also gave a Kd [3] of 4 nM, a Kd [4] of 1 nM and a Kd ([5]; DP401 affinity (nM)) of 1 nM. The Kd ([5]; KD, DP401) was 0.8 nM, the Kd (I-E^d; I-E^D affinity (nM)) was 20 nM and the Kd (I-E^d; KD, I-E^d) was 14 nM.
